Results on 1 compound are retold here after US20240299373A1, “IMPROVED USE OF TRADIPITANT IN MOTION SICKNESS” (Vanda Pharmaceuticals Inc., priority 2023, published 2024).

The target of one data set is T1, NK-1 receptor (Meriones unguiculatus, UniProt Q5DUB1).
T1 construct: centrally acting NK-1 receptor antagonist in vivo in the gerbil; from tissue; host or cells: brain of living Mongolian gerbils
The experiment in a line: NK-1 agonist (GR73632, icv)-induced foot-tapping behavior in gerbils. The format is in vivo. To be noted: gerbil, 0.1 mg/kg po. How it is done: Male Mongolian gerbils (Harlan Sprague Dawley, Indianapolis, IN) weighing 26 to 40 grams are administered the selective neurokinin-1 receptor agonist GR73632 (3 pmol) via direct, vertical, free-hand intracerebroventricular (icy) injection to a depth of 4.5 mm below bregma with a cuffed 27-gauge needle attached to a 50 μl Hamilton syringe. Immediately after injection, animals are placed individually into isolated chambers with pressure-sensitive velocimeter platform floors (San Diego Instruments acoustic startle apparatus) that detect and quantify vibration. The San Diego Instruments “SR” DOS-based computer program is used on a PC to record the number of foot-taps over the following 6 to 10 minutes, beginning 30 seconds after the floor is lightly tapped. […] The total number and average intensity of events over the duration is determined. Total number of taps is analyzed with one-way ANOVA and post-hoc Dunnett's test using JMP statistical software.
A dose-response curve (with doses of 0.3, 1, 3 and 10 pmols, icy) is initially generated with the NK-1 agonist GR73632.
NK-1 antagonists are tested for their ability to attenuate GR73632-induced foot tapping. NK-1 antagonists are administered (po) via oral feeding tube at doses and time points specified in each experiment. […]
NK-1 antagonists are administered at multiple doses (at least 3; one dose per animal) and response to GR73632 is measured. […]

A short description of data set [1]: Plasma concentration 2 hours post-dose in beagle dogs. The data set is classed as in vivo. The settings on record: Dog 1-5. How it is done: All animals are dosed over a period of five (5) weeks, with each dog receiving one of five different treatments on each day of dosing. […] In cases where apomorphine is administered alone, without prior treatment with tradipitant or aprepitant, apomorphine is given at approximately the same time as when given in combination with tradipitant or aprepitant.

A further data set deals with motion sickness. The experiment in a line: Clinical study of motion sickness prevention during sea travel. To be noted: for study participants experiencing vomiting: tradipitant arm 170 mg. The format is in vivo, human. The procedure: A randomized, double blind, placebo-controlled clinical study of motion sickness is conducted, in which 126 human subjects (“study participants”), each having a prior history of motion sickness, are subjected to sea travel in the Pacific Ocean under varied weather conditions. Study participants are distributed over seven (7) four-hour boat trips off the coast of Los Angeles, California, USA. For each trip, sea conditions and participant self-evaluation of symptoms of motion sickness are recorded. Among the seven trips, three are under “rough” sea conditions, conducive to producing motion sickness with wave heights above one meter. The remaining four trips are made under “calm” conditions, with wave heights less than one meter, and are less likely to produce motion sickness. Under “rough” sea conditions, 72.2% of the placebo treated patients experience vomiting compared to only 26.7% under “calm” conditions. Subjects are randomized 1:1 to receive either tradipitant 170 mg or placebo by mouth in a blinded fashion, prior to travel initiation. Participants report their symptoms at predetermined time intervals of every 30 minutes during the travel period using the Motion Sickness Severity Scale (MSSS) and other assessments. Primary end points of the study include: percentage of participants vomiting, and Motion Sickness Severity Scale (MSSS) Worst score. The MSSS is a 7 point scale ranging from 0 (“no symptoms”) to 6 (“vomiting”). An exploratory analysis is also performed to evaluate the effects of tradipitant under “calm” and “rough” seas. In the study described above in Example 3, further analysis is conducted with respect to study participants' ethnic backgrounds, in particular, whether study participants are Hispanic or non-Hispanic, e.g., white (non-Hispanic), Black or African American (non-Hispanic), American Indian and Alaska Native (non-Hispanic), Asian (non-Hispanic), Native Hawaiian and other Pacific Islander (non-Hispanic), some other race (non-Hispanic), or multi-racial (non-Hispanic). Results are analyzed based on study participants' self-reported ethnic backgrounds.

“And” between values parts separate entries of the source, which are not always exact repeats. Identical values can stand only once.

T1 sequence (Q5DUB1 whole entry): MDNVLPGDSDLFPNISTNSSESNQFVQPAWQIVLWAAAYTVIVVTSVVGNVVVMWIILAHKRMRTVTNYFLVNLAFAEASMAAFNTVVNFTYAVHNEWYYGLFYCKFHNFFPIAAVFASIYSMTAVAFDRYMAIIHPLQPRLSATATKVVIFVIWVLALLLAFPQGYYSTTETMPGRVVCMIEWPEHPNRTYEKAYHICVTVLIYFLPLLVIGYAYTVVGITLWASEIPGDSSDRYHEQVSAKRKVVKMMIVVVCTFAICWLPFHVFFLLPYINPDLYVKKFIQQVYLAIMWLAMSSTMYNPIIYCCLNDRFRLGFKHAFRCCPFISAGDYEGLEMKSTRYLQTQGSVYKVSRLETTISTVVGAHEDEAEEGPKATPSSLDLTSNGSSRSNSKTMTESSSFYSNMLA

Turning to `O=C(c1ccccc1Cl)c1cccnc1-c1nnn(Cc2cc(C(F)(F)F)cc(C(F)(F)F)c2)c1-c1ccncc1` [Tradipitant, {2-[1-(3,5-bistrifluoromethylbenzyl)-5-pyridin-4-yl-1H-[1,2,3]triazol-4-yl]-pyridin-3-yl}-(2-chlorophenyl)-methanone], the “time after administration up to which foot-tapping behavior is significantly inhibited” value on NK-1 receptor is “up to 7 hours”. For the same compound, the “Concentration of tradipitant in plasma, individual dogs” value in data set [1] (0.3 mg/kg oral) was 90.93 ng/mL and 83.38 ng/mL and 22.59 ng/mL and 51.20 ng/mL and 41.33 ng/mL; in data set [1] (1.0 mg/kg oral), 240.84 ng/mL and 100.97 ng/mL and 61.56 ng/mL and 175.58 ng/mL and 86.49 ng/mL; in data set [1] (3.0 mg/kg oral), 316.20 ng/mL and 682.91 ng/mL and 119.79 ng/mL and 122.73 ng/mL and 256.58 ng/mL. Besides, the “% Vomiting, Difference placebo vs tradipitant” value in the data set on motion sickness (Calm Sea, P-value 0.3123) stood at 8.5%; in the data set on motion sickness (ITT, P-value 0.0039), 22.2%; in the data set on motion sickness (Rough Sea, P-value 0.0009), 56.4%. The “Worst MSSS, Difference placebo vs tradipitant” value in the data set on motion sickness (Calm Sea, P-value 0.8271) was −0.09; in the data set with motion sickness (ITT, P-value 0.2936), 0.35; with motion sickness (Rough Sea, P-value 0.0235) it was 1.38. Further, the “Worst MSSS” value was found to be 3.4 in the data set on motion sickness (Calm Sea, n = 44, 170 mg by mouth, placebo 3.32); 3.40 in the data set on motion sickness (Calm Sea, n = 44, 170 mg by mouth, placebo 3.32, listed as tradipitant); 3.40 with motion sickness (ITT, n = 63, 170 mg by mouth, placebo 3.75); 3.4 with motion sickness (ITT, n = 63, 170 mg by mouth, placebo 3.75, listed as tradipitant); 3.19 in the data set on motion sickness (Rough Sea, n = 19, 170 mg by mouth, placebo 4.57). The “% Vomiting” value was 18.2% with motion sickness (Calm Sea, n = 44, 170 mg by mouth, placebo 26.7%); 18.2% with motion sickness (Calm Sea, n = 44, 170 mg by mouth, placebo 26.7%, listed as tradipitant); 17.5% in the data set on motion sickness (ITT, n = 63, 170 mg by mouth, placebo 39.7%); 17.5% in the data set with motion sickness (ITT, n = 63, 170 mg by mouth, placebo 39.7%, listed as tradipitant); 15.8% in the data set on motion sickness (Rough Sea, n = 19, 170 mg by mouth, placebo 72.2%); 15.8% in the data set on motion sickness (Rough Sea, n = 19, 170 mg by mouth, placebo 72.2%, listed as tradipitant). Further, the “study participants experiencing vomiting” value is recorded as 4.5% in the data set on motion sickness (Hispanic participants, placebo 33.3%) and 24.4% in the data set on motion sickness (non-Hispanic participants, placebo 42.8%).
